Measurements: patent publication US8410170B2, “Use of isothiocyanates compounds in treating prostatic diseases and skin cancer” (Wuxi JC Pharmaceutical Technology Co., Ltd., priority 2005, dated 2013)

Columns and labels:
[1] = tested on: transcription factor Sp1; assay: Sp1-luc luciferase activity assay in transfected LNCaP AD cells; format: cell-based, human; conditions: 24 hrs
Excerpt: The Sp1-luc and mtSp1-luc contain three tandem repeats of consensus Sp1 sites driving the luciferase gene and its mutant. […] Effectene transfection reagent and luciferase assay kit were acquired from Qiagen (Valencia, Calif., USA) and Promega (Madison, Wis., USA). Reagents for protein electrophoresis were purchased from Bio-Rad company (USA). The other chemicals were purchased from Sigma (St. Louis, Mo.) otherwise as indicated. […] (Gao, M., Ossowski, L., and Ferrari, A. C. Activation of Rb and decline in androgen receptor protein precede retinoic acid-induced apoptosis in androgen-dependent LNCaP cells and their androgen-independent derivative. J Cell Physiol, 179: 336-346, 1999). The AD and AI cells were maintained in RPMI-1640 with 10% fetal bovine serum (FBS) and charcoal stripped fetal bovine serum, penicillin-streptomycin for incubation at 5% CO2 and 37° C. respectively. […] After incubation for 24 hrs at 5% CO2 and 37° C., the cells were transfected with 1 μg/dish of SP1-luciferase gene (Sp1-luc), or its mutant mtSp1-luc using Effectene (Qiagen, Valencia, Calif.) as the transfection reagent. […] The cells were collected, washed, lysed, and the lysates were used for luciferase activity assay using Promega luciferase assay system.

[2] = tested on: non-bacterial prostatitis; assay: Therapeutic effects on non-bacterial prostatitis (Xiaozhiling injection into prostate); format: in vivo, SD rats; conditions: for Average of Body Weight / Average Volume of Prostate / Average Weight of Prostate / Inhibition of Organ-coefficient / Organ Coefficient: 5 weeks
Procedure: Fifty-five male SD rats were randomly divided into 6 groups, 9 each, except the negative control group for which 10 animals were used. All animals from group 1 to 6 were anesthetized by injection of ketamine under sterile conditions and incised around 1.5 cm with a sterilized surgery scalpel at middle of abdomen. Animals in Group 1 were injected penicillin to prevent infection, and given distill water, 10 ml/kg, once a day, 5 times a week for 5 weeks. Groups from 2 to 6 injected 25% Xiaozhiling into left and right lobes of prostate, 0.1 ml for each lobe and sew the muscle and skin with #1 silk thread. The animals were then given penicillin to prevent infectious. Group 2 was served as negative control group in which animals were treated with distill water by gavage 24 hrs after the Xiaozhiling injection, once a day, 5 times a week for 5 weeks. Group 3 was served as positive control group in which animals were treated with GENURIN by gavage 24 hrs after the Xiaozhiling injection at dose of 60 mg/kg, once a day, 5 times a week (escaping weekend) for 5 weeks. […] On the last dosing day, urine samples from different groups that covered periods of 1, 2 and 3 hrs were collected.
Twenty-four hrs after the last dose, the animals were euthanized and weighed. Volume and weight of prostate were measured. The averages of the prostate weight/volume and organ coefficient (average weight of prostate/average of body weight) were calculated, and statistical analysis performed (t test).
Prostate tissues of animals from different groups were embedded with paraffin. The tissue sections were stained with H&E for histpathological examination by an anatomical pathologist.

With `S=C=NCCc1ccccc1` [PEITC, phenethyl isothiocyanate] the “luciferase activity of Sp1-luc transfected gene” value [1] was “significantly decreased”, the “Average of Body Weight” value ([2]; PEITC 1 mg/kg gavage (Example 13-11)) was 377 ± 39.1 g and the “Average Volume of Prostate” value ([2]; PEITC 1 mg/kg gavage) was 0.78 ± 0.16 cm^3. The “Average Weight of Prostate” value ([2]; PEITC 1 mg/kg gavage) was 0.7 ± 0.15 g, the “Inhibition of Organ-coefficient” value ([2]; PEITC 1 mg/kg gavage) was 28.46% and the “Organ Coefficient” value ([2]; PEITC 1 mg/kg gavage) was 0.186 ± 0.03 %. For the same compound, the “Bleeding: no. of animals with score 0” value ([2]; PEITC 1 mg/kg, 9 animals) was 7, the “Bleeding: no. of animals with score +” value ([2]; PEITC 1 mg/kg, 9 animals) was 2 and the “Bleeding: no. of animals with score ++” value ([2]; PEITC 1 mg/kg, 9 animals) was 0. The “Bleeding: no. of animals with score +++” value ([2]; PEITC 1 mg/kg, 9 animals) was 0, the “Chronic Inflammatory Infiltration: no. of animals with score 0” value ([2]; PEITC 1 mg/kg, 9 animals) was 9 and the “Chronic Inflammatory Infiltration: no. of animals with score +” value ([2]; PEITC 1 mg/kg, 9 animals) was 0. For the same compound, the “Chronic Inflammatory Infiltration: no. of animals with score ++” value ([2]; PEITC 1 mg/kg, 9 animals) was 0, the “Chronic Inflammatory Infiltration: no. of animals with score +++” value ([2]; PEITC 1 mg/kg, 9 animals) was 0 and the “Congestion: no. of animals with score 0” value ([2]; PEITC 1 mg/kg, 9 animals) was 3. The “Congestion: no. of animals with score +” value ([2]; PEITC 1 mg/kg, 9 animals) was 6, the “Congestion: no. of animals with score ++” value ([2]; PEITC 1 mg/kg, 9 animals) was 0 and the “Congestion: no. of animals with score +++” value ([2]; PEITC 1 mg/kg, 9 animals) was 0. For the same compound, the “Edema: no. of animals with score 0” value ([2]; PEITC 1 mg/kg, 9 animals) was 3, the “Edema: no. of animals with score +” value ([2]; PEITC 1 mg/kg, 9 animals) was 6 and the “Edema: no. of animals with score ++” value ([2]; PEITC 1 mg/kg, 9 animals) was 0. For the same compound, the “Edema: no. of animals with score +++” value ([2]; PEITC 1 mg/kg, 9 animals) was 0, the “Fibrous Exudation: no. of animals with score 0” value ([2]; PEITC 1 mg/kg, 9 animals) was 5 and the “Fibrous Exudation: no. of animals with score +” value ([2]; PEITC 1 mg/kg, 9 animals) was 4. The “Fibrous Exudation: no. of animals with score ++” value ([2]; PEITC 1 mg/kg, 9 animals) was 0, the “Fibrous Exudation: no. of animals with score +++” value ([2]; PEITC 1 mg/kg, 9 animals) was 0 and the “Histopathological score of prostatitis, Overall Average X ± SD” value ([2]; PEITC 1 mg/kg, 9 animals) was 1.83 ± 1.06. The “Hyperblastosis: no. of animals with score 0” value ([2]; PEITC 1 mg/kg, 9 animals) was 7, the “Hyperblastosis: no. of animals with score +” value ([2]; PEITC 1 mg/kg, 9 animals) was 2 and the “Hyperblastosis: no. of animals with score ++” value ([2]; PEITC 1 mg/kg, 9 animals) was 0. For the same compound, the “Hyperblastosis: no. of animals with score +++” value ([2]; PEITC 1 mg/kg, 9 animals) was 0, the “Inflammatory Infiltration: no. of animals with score 0” value ([2]; PEITC 1 mg/kg, 9 animals) was 9 and the “Inflammatory Infiltration: no. of animals with score +” value ([2]; PEITC 1 mg/kg, 9 animals) was 0. For the same compound, the “Inflammatory Infiltration: no. of animals with score ++” value ([2]; PEITC 1 mg/kg, 9 animals) was 0, the “Inflammatory Infiltration: no. of animals with score +++” value ([2]; PEITC 1 mg/kg, 9 animals) was 0 and the “congestion, edema, fibroid and leukocyte infiltration versus untreated prostatitis animals (slide)” value ([2]; PEITC 1 mg/kg, FIG. 7.5) was “less severe”. The “urine, 1 h Period” value ([2]; PEITC 1 mg/kg, last dosing day) was 5.5 ± 1.0 mL, the “urine, 2 h Period” value ([2]; PEITC 1 mg/kg, last dosing day) was 7.0 ± 0.7 mL and the “urine, 3 h Period” value ([2]; PEITC 1 mg/kg, last dosing day) was 7.9 ± 1.0 mL. For the same compound, the “Average of Body Weight” value ([2]; PEITC 2 mg/kg gavage (Example 13-11)) was 360 ± 24.8 g, the “Average Volume of Prostate” value ([2]; PEITC 2 mg/kg gavage) was 0.82 ± 0.13 cm^3 and the “Average Weight of Prostate” value ([2]; PEITC 2 mg/kg gavage) was 0.70 ± 0.12 g. The “Inhibition of Organ-coefficient” value ([2]; PEITC 2 mg/kg gavage) was 27.69%, the “Organ Coefficient” value ([2]; PEITC 2 mg/kg gavage) was 0.188 ± 0.03 % and the “Bleeding: no. of animals with score 0” value ([2]; PEITC 2 mg/kg, 9 animals) was 8. The “Bleeding: no. of animals with score +” value ([2]; PEITC 2 mg/kg, 9 animals) was 1, the “Bleeding: no. of animals with score ++” value ([2]; PEITC 2 mg/kg, 9 animals) was 0 and the “Bleeding: no. of animals with score +++” value ([2]; PEITC 2 mg/kg, 9 animals) was 0. The “Chronic Inflammatory Infiltration: no. of animals with score 0” value ([2]; PEITC 2 mg/kg, 9 animals) was 8, the “Chronic Inflammatory Infiltration: no. of animals with score +” value ([2]; PEITC 2 mg/kg, 9 animals) was 0 and the “Chronic Inflammatory Infiltration: no. of animals with score ++” value ([2]; PEITC 2 mg/kg, 9 animals) was 1. The “Chronic Inflammatory Infiltration: no. of animals with score +++” value ([2]; PEITC 2 mg/kg, 9 animals) was 0, the “Congestion: no. of animals with score 0” value ([2]; PEITC 2 mg/kg, 9 animals) was 4 and the “Congestion: no. of animals with score +” value ([2]; PEITC 2 mg/kg, 9 animals) was 5. The “Congestion: no. of animals with score ++” value ([2]; PEITC 2 mg/kg, 9 animals) was 0, the “Congestion: no. of animals with score +++” value ([2]; PEITC 2 mg/kg, 9 animals) was 0 and the “Edema: no. of animals with score 0” value ([2]; PEITC 2 mg/kg, 9 animals) was 6.
